For the experiment, the system named is RYGB-operated individuals with confirmed postprandial hypoglycaemia. As to the kind of experiment: Crossover study with liquid mixed meal test, postprandial hypoglycaemia after Roux-en-Y gastric bypass. The class given is in vivo, human. As to conditions: for time spent in level 2 hypoglycaemia (<3.1 mmol/l): n=5, placebo 31.0±5; for nadir PG: placebo 3.0±0.2; for time spent in hypoglycaemia (<3.9 mmol/l): placebo 62.0±8; for PG incremental AUC (iAUC70-240 min) after drug administration: placebo 752±19, p<0.0001. The source says:
Postprandial hypoglycaemia is a frequent and debilitating complication following Roux-en-Y gastric bypass (RYGB), and no effective treatment exists. In a proof-of-concept study, we investigated the effects of dasiglucagon, a novel, stable glucagon analogue, on postprandial hypoglycaemia after RYGB. The primary aim of the present study was to examine the effects of two doses of dasiglucagon on the postprandial nadir plasma glucose concentration (PG) and time spent in hypoglycaemia (<3.9 mmol/l) in RYGB-operated individuals with confirmed postprandial hypoglycaemia.
Ten RYGB-operated individuals (two males, eight females; BMI 34.6 (21.8-39.0) kg/m^2; age 46 (29-67) years; HbA1c 32 (29-42) mmol/mol; time since operation 9.3 (6-11.5) years; weight loss since operation 53.9 (25.1-92.0) kg)) with confirmed symptomatic postprandial hypoglycaemia (PG<3.5 mmol/l verified by a 6-day continuous glucose monitoring) completed a double-blinded, randomised, crossover study comprising three separate treatment days, each including a standardised liquid mixed meal test (25 kJ per kg body mass; 50 E % carbohydrates, 35 E % fat and 15 E % protein). A subcutaneous injection of either placebo, 80 or 200 μg dasiglucagon (D80μg and D200μg) was administered after the postprandial PG peak, approximately 10 minutes before the projected time point where the PG returned to fasting levels using a subject-specific linear regression model. Blood sampling and assessment of hypoglycaemic symptoms, by the Edinburgh Hypoglycaemia Symptom Scale, were performed at fixed time intervals. Data were analysed using linear mixed models and Tukey's corrections model for multiple comparisons.

Regarding “Hy-HSQGTFTSDYSKYLD-Aib-ARAEEFVKWLEST-OH [Compound 1, glucagon analogue (dasiglucagon)]”, the “time spent in level 2 hypoglycaemia (<3.1 mmol/l)” value runs as follows: (80 μg subcutaneous, p>0.05) 7 ± 5 min; (200 μg subcutaneous, p=0.01) 0.0 ± 0 min. For the same substance, the “nadir PG” value is, setting by setting: (80 μg subcutaneous, p=0.002) 3.9 ± 0.3 mmol/L; (200 μg subcutaneous, p=0.0002) 4.5 ± 0.2 mmol/L. Also, the “time spent in hypoglycaemia (<3.9 mmol/l)” value is 27.5 ± 12 min (80 μg subcutaneous, p=0.05) and 14.0 ± 9 min (200 μg subcutaneous, p=0.003). Besides, the “PG incremental AUC (iAUC70-240 min) after drug administration” value reads like this: (80 μg subcutaneous) 917 ± 22 mmol·min/L; (200 μg subcutaneous) 992 ± 28 mmol·min/L. In addition, the “participants who experienced level 2 hypoglycaemia (<3.1 mmol/l)” value (200 μg subcutaneous, five participants after placebo) is “none”. The “changes in hypoglycaemic symptoms (Edinburgh Hypoglycaemia Symptom Scale)” value (between the three study days (placebo, 80 and 200 μg)) is reported as “no significant changes”.

The values above are taken from patent US20210283053A1, “LIQUID FORMULATIONS OF GLUCAGON ANALOGUES” (Zealand Pharma A/S, priority 2020, published 2021).
